Experimental data as given in PubChem BioAssay AID1117319 (Southern Research Institute, 2015).
Records with an inconclusive call do not appear.

These compounds were tested against Virion infectivity factor (Human immunodeficiency virus type 1 group M subtype B (isolate BH10)) + Virion infectivity factor (Human immunodeficiency virus type 1 group M subtype B (isolate BRU/LAI)) + Virion infectivity factor (Human immunodeficiency virus type 1 group M subtype B (isolate PCV12)) + Virion infectivity factor (Human immunodeficiency virus type 1 group M subtype B (isolate HXB2)) + DNA dC->dU-editing enzyme APOBEC-3G (Homo sapiens) (UniProt P69720+P69721+P69722+P69723+Q9HC16) (assay: inhibitors of Vif binding to APOBEC3G peptide, primary screen, biochemical, TR-FRET, GST-Vif 1-94, biotin-A3G peptide, dose response retest (AID 1117319);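 further: Vif residues 1-94 fused to GST binding biotinylated APOBEC3G peptide 110-148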).

| Structure (SMILES) | IC50 |
| --- | --- |
| O=C(O)c1ccc(-n2cccc2/C=C2/NC(=O)N(c3cccc(Cl)c3)C2=O)cc1 | 1.71 µM |
| O=C(/C=C/c1ccco1)NC(=S)Nc1ccccc1N1CCOCC1 | 11.5 µM |
| O=C1C2CCCN2C(c2ccc(Cl)cc2)N1c1ccccn1 (stereo not given) | 84.7 µM |
| CNC[C@H](O)c1ccc(O)c(O)c1 | 1.16 µM |
| O=C1NC(=O)C(=Cc2ccc(SC3CCCCC3)o2)C(=O)N1 | 29 µM |
| CNC(=O)[C@@H]1C[C@H]1[C@@H](NC(=O)OCc1ccccc1)c1ccccc1 | 16.6 µM |
| Cn1cccc1/C=C1/C(=O)NC(=O)N(Cc2ccc(F)cc2)C1=O | 8.76 µM |
| S=c1[nH]nc(-c2cccnc2)n1/N=C/C=C/c1ccco1 | 3.97 µM |
| O=C(O)c1ccc2c(c1)[C@@H]1C=CC[C@@H]1[C@H](c1ccccn1)N2 | 1.05 µM |
| Oc1ccc(N=Cc2ccc(-c3cccs3)s2)cc1 | 0.92 µM |
| COC(=O)c1ccc(COc2ccccc2/C=C(\C#N)C(=O)Nc2c(C)cc(C)cc2C)cc1 | 22.9 µM |
| CCn1c(C)nc2cc(C(=O)N/N=C/c3ccc(O)c(O)c3O)ccc21 | 0.52 µM |
| O=C(Nc1nc(-c2ccco2)c(-c2ccco2)s1)c1ccc(F)cc1F | 85.4 µM |
| Cc1cnnc2ccc3c(no[n+]3[O-])c12 | 4.71 µM |
| N#Cc1ccccc1CN1C(=O)S/C(=C/c2cccn2-c2cccc(C(=O)O)c2)C1=O | 18.5 µM |
| O=C(N/N=C/C(Br)=C/c1ccccc1)c1cc(-c2ccco2)[nH]n1 | 5.12 µM |
| N#Cc1c(N)sc(=S)c2c1CCCCC2 | 4.22 µM |
| CN(C)[C@@H]1C(=O)C(C(N)=O)=C(O)[C@@]2(O)C(=O)C3=C(O)c4c(O)ccc(Cl)c4[C@@](C)(O)C3C[C@@H]12 (stereo not given in full) | 7.02 µM |
| Cc1cc(-c2n[nH]c(=S)n2/N=C/C=C/c2ccco2)n[nH]1 | 6.02 µM |
| O=C(CCS(=O)(=O)c1ccc(Br)cc1)NCCc1ccccc1 | 28.9 µM |
| Cc1ccccc1NC(=O)CSc1nnc(-c2ccco2)c(-c2ccco2)n1 | 1.17 µM |
| COc1cccc(N2C(=O)NC(=O)/C(=C/c3ccc([N+](=O)[O-])s3)C2=O)c1 | 7.18 µM |
| Cc1noc(C)c1S(=O)(=O)Nc1ccc2c(c1)C(=O)N([C@@H](C)CO)C[C@H](C)[C@@H](CN(C)Cc1ccc(C(F)(F)F)cc1)OCCCC[C@H](C)O2 | 96 µM |
| CCOC(=O)/C=C1\SCC(=O)N1CC(=O)NC(C)c1ccc(F)cc1 (stereo not given) | 28.8 µM |
| O=C1CC(Nc2ccc(N3CCOCC3)cc2)C(=O)N1C1CCCCC1 (stereo not given) | 2.74 µM |
| Cc1cc(C)c2c(=N)c3ccccc3n(CCCCCCCCn3c4ccccc4c(=N)c4c(C)cc(C)nc43)c2n1 | 1.46 µM |
| CN(C)N1C(N)=C(C#N)C(c2cccnc2)C2=C1CCCC2=O (stereo not given) | 11.4 µM |
| O=C(CSc1ccc(Cl)cc1)c1ccco1 | 10.8 µM |

| Structure (SMILES) | IC50 |
| --- | --- |
| CCCCn1c(=NC(=O)c2cccnc2)c(C#N)cc2c(=O)n3cccc(C)c3nc21 | 55.9 µM |
| COc1cc(CN2CCNC(=O)C2CC(=O)N(Cc2nccn2C)C(C)C)cc(OC)c1 (stereo not given) | 28.3 µM |
| CCOC(=O)CNc1ccc2c(c1)OCO2 | 2.46 µM |
| NC(=O)COC(=O)c1ccc(Oc2ccccc2)cc1 | 98.9 µM |
| CC(=O)OC(C)C1C2=C(C(=O)CC1(C)O)C(=O)c1c(ccc(-c3ccc4c(c3O)C(=O)C3=C(C4=O)C(C(C)OC(C)=O)C(C)(O)CC3=O)c1O)C2=O (stereo not given) | 0.73 µM |
| O=c1oc(/C=C/c2ccco2)nc2sc3c(c12)CCC3 | 15.5 µM |
| Cc1ccn2cc(-c3nonc3C)cc2c1 | 22.5 µM |
| CCC(C)NC(=O)Cc1cn(C)c2ccccc12 (stereo not given) | 87.5 µM |
| Cn1c(N)c(C(=O)COC(=O)C2CCCCC2)c(=O)n(C)c1=O | 92.9 µM |
| C=CCn1c(Sc2nc(C)cs2)nc2c1c(=O)[nH]c(=O)n2C | 94.2 µM |
| CCN(CC)S(=O)(=O)c1cccc(C(=O)N/N=C/c2ccc(O)c(O)c2O)c1 | 3.48 µM |
| O=C(NC1CCC(C(=O)O)CC1)OCc1ccccc1 (stereo not given) | 12.4 µM |
| Cc1ccc(C)c(NC(=O)CN(C)C(=O)c2cccc(-n3cccc3)c2)c1 | 15.4 µM |
| COC(=O)C1=COC(C)C2CN3CCc4c([nH]c5ccccc45)C3CC12 (stereo not given) | 17.9 µM |
| CCOC(=O)c1cc2cc(F)ccc2nc1C | 1.65 µM |
| CCOC(=O)C1=C(C)N=c2s/c(=C/c3ccco3)c(=O)n2C1c1cccc(OC)c1 (stereo not given) | 33 µM |
| COC(=O)Cn1ncn2c(cc3oc(C)cc32)c1=O | 71.6 µM |
| Cc1ccc(/C=c2\sc3nc(-c4cccs4)nn3c2=O)o1 | 13.2 µM |
| O=C(O)c1cccc2c1NC(C(=O)O)C1CC(Sc3ccccc3[N+](=O)[O-])C(Cl)C21 (stereo not given) | 0.5 µM |
| COc1ccccc1C1CC(=O)Nc2c1c(=O)n(C)c(=O)n2C (stereo not given) | 70.4 µM |
| Cn1c2ccccc2c2ccc3c(c21)C(=O)C=CC3=O | 23.8 µM |
| C/C(=N\Nc1ccc([N+](=O)[O-])cc1[N+](=O)[O-])c1cc2c(ccc3ccccc32)oc1=O | 2.92 µM |
| Nc1cccc2cc(S(=O)(=O)O)ccc12 | 35 µM |
| NC(=O)C1CCN(C2=C(Cl)C(=O)c3ccccc3C2=O)CC1 | 2.5 µM |
| COc1cc(OC)c2c(c1O)OC(c1ccccc1)CC2=O (stereo not given) | 4.82 µM |
| O=C1C(O)CC2c3ccccc3CC3(CCCC3)N12 (stereo not given) | 50.6 µM |
| Cc1ccc(/C=C/C(=O)Nc2ccc([N+](=O)[O-])c(NC(=O)/C=C/c3ccc(C)o3)c2)o1 | 1.49 µM |
